ChEMBL document CHEMBL3576856, “Membrane-Targeting DCAP Analogues with Broad-Spectrum Antibiotic Activity against Pathogenic Bacteria” (2015)
In brackets after ≈: the same amount, converted by molar mass. Activity calls are given as the source filed them. No cut-off for these calls is given here.

Experiments:
[1] = test system: Escherichia coli; assay: Antimicrobial activity against Escherichia coli BW25113 expressing delta-tolC gene incubated for 16 to 18 hrs by macrodilution method; format: functional
[2] = test system: Escherichia coli; assay: Antimicrobial activity against Escherichia coli BW25113 incubated for 16 to 18 hrs by macrodilution method; format: functional
[3] = test system: Francisella tularensis; assay: Antimicrobial activity against Francisella tularensis incubated for 16 to 18 hrs by macrodilution method; format: functional
[4] = test system: Bacillus anthracis; assay: Antimicrobial activity against Bacillus anthracis incubated for 16 to 18 hrs by macrodilution method; format: functional
[5] = test system: Burkholderia mallei; assay: Antimicrobial activity against Burkholderia mallei incubated for 16 to 18 hrs by macrodilution method; format: functional
[6] = test system: Yersinia pestis; assay: Antimicrobial activity against Yersinia pestis incubated for 16 to 18 hrs by macrodilution method; format: functional
[7] = test system: Burkholderia pseudomallei; assay: Antimicrobial activity against Burkholderia pseudomallei incubated for 16 to 18 hrs by macrodilution method; format: functional
[8] = test system: Vibrio cholerae; assay: Antimicrobial activity against Vibrio cholerae incubated for 16 to 18 hrs by macrodilution method; format: functional
[9] = test system: Salmonella typhimurium; assay: Antimicrobial activity against Salmonella typhimurium incubated for 16 to 18 hrs by macrodilution method; format: functional, Salmonella enterica subsp. enterica serovar Typhimurium; conditions: Salmonella enterica
[10] = test system: Shigella boydii; assay: Antimicrobial activity against Shigella boydii incubated for 16 to 18 hrs by macrodilution method; format: functional
[11] = test system: Edwardsiella tarda; assay: Antimicrobial activity against Edwardsiella tarda incubated for 16 to 18 hrs by macrodilution method; format: functional
[12] = test system: Klebsiella pneumoniae; assay: Antimicrobial activity against Klebsiella pneumoniae incubated for 16 to 18 hrs by macrodilution method; format: functional
[13] = test system: Klebsiella aerogenes; assay: Antimicrobial activity against Enterobacter aerogenes incubated for 16 to 18 hrs by macrodilution method; format: functional
[14] = test system: Acinetobacter baumannii; assay: Antimicrobial activity against Acinetobacter baumannii incubated for 16 to 18 hrs by macrodilution method; format: functional
[15] = test system: Morganella morganii; assay: Antimicrobial activity against Morganella morganii incubated for 16 to 18 hrs by macrodilution method; format: functional
[16] = test system: Staphylococcus aureus; assay: Antimicrobial activity against Staphylococcus aureus Newman incubated for 16 to 18 hrs by macrodilution method; format: functional
[17] = test system: Escherichia coli; assay: Antimicrobial activity against Escherichia coli MG1655 at 2.5 to 80 uM incubated at 37 degC overnight for 18 hrs in presence of ampicillin by checkerboard assay; format: functional, organism-based
[18] = test system: Escherichia coli; assay: Synergistic potentiation of ampicillin-induced antimicrobial effect against Escherichia coli MG1655 at 2.5 to 80 uM incubated at 37 degC overnight for 18 hrs in presence of >4 uM ampicillin by checkerboard assay; format: functional, organism-based
[19] = test system: Staphylococcus aureus; assay: Synergistic potentiation of ampicillin-induced antimicrobial effect against Staphylococcus aureus at 2.5 to 80 uM incubated at 37 degC overnight for 18 hrs in presence of >4 uM ampicillin by checkerboard assay; format: functional, organism-based
[20] = test system: Escherichia coli; assay: Synergistic potentiation of kanamycin-induced antimicrobial effect against Escherichia coli MG1655 at 2.5 to 80 uM incubated at 37 degC overnight for 18 hrs in presence of >4 uM kanamycin by checkerboard assay; format: functional, organism-based
[21] = test system: Staphylococcus aureus; assay: Potentiation of kanamycin-induced antimicrobial effect against Staphylococcus aureus at 2.5 to 80 uM incubated at 37 degC overnight for 18 hrs in presence of kanamycin by checkerboard assay; format: functional, organism-based
[22] = test system: Escherichia coli; assay: Potentiation of novobiocin-induced antimicrobial effect against Escherichia coli MG1655 at 2.5 to 80 uM incubated at 37 degC overnight for 18 hrs in presence of novobiocin by checkerboard assay; format: functional, organism-based
[23] = test system: Escherichia coli; assay: Antimicrobial activity against Escherichia coli MG1655 incubated at 37 degC overnight for 18 hrs; format: functional; conditions: MG1655, 18 h
[24] = test system: Staphylococcus aureus; assay: Antimicrobial activity against Staphylococcus aureus incubated at 37 degC overnight for 18 hrs; format: functional

## CCC(CO)(CO)NCC(O)Cn1c2ccc(Cl)cc2c2cc(Cl)ccc21 (stereo not drawn)
[1]
  MIC: 20 µM (≈ 8.23 µg/mL)
[2]
  MIC: 160 µM (≈ 65.8 µg/mL)

## OCC(CO)(CO)NC[C@H](O)Cn1c2ccc(Cl)cc2c2cc(Cl)ccc21
[1]
  MIC: 20 µM (≈ 8.27 µg/mL)
[2]
  MIC: 80 µM (≈ 33.1 µg/mL)
[3]
  MIC50: 85 µM (≈ 35.1 µg/mL)
  MIC90: 170 µM (≈ 70.3 µg/mL)
[4]
  MIC50: 42 µM (≈ 17.4 µg/mL)
  MIC90: 42 µM (≈ 17.4 µg/mL)
[5]
  MIC50: ≥ 170 µM
  MIC90: ≥ 170 µM
[6]
  MIC50: ≥ 170 µM
  MIC90: ≥ 170 µM
[7]
  MIC50: ≥ 170 µM
  MIC90: ≥ 170 µM

## CC(C)CCNCC(O)Cn1c2ccc(Cl)cc2c2cc(Cl)ccc21 (stereo not drawn)
[1]
  MIC: 2.5 µM (≈ 0.948 µg/mL)
[2]
  MIC: 40 µM (≈ 15.2 µg/mL)
[8]
  MIC: 6.25 µM (≈ 2.37 µg/mL)
[9]
  MIC: 50 µM (≈ 19 µg/mL)
[10]
  MIC: 25 µM (≈ 9.48 µg/mL)
[11]
  MIC: 25 µM (≈ 9.48 µg/mL)
[12]
  MIC: 50 µM (≈ 19 µg/mL)
[13]
  MIC: 50 µM (≈ 19 µg/mL)
[14]
  MIC: 12.5 µM (≈ 4.74 µg/mL)
[15]
  MIC: 50 µM (≈ 19 µg/mL)
[16]
  MIC: 5 µM (≈ 1.9 µg/mL)
[3]
  MIC50: 5 µM (≈ 1.9 µg/mL)
  MIC90: 10 µM (≈ 3.79 µg/mL)
[4]
  MIC50: 5 µM (≈ 1.9 µg/mL)
  MIC90: 5 µM (≈ 1.9 µg/mL)
[5]
  MIC50: 21 µM (≈ 7.97 µg/mL)
  MIC90: 42 µM (≈ 15.9 µg/mL)
[6]
  MIC50: 21 µM (≈ 7.97 µg/mL)
  MIC90: 42 µM (≈ 15.9 µg/mL)
[7]
  MIC50: 170 µM (≈ 64.5 µg/mL)
  MIC90: ≥ 170 µM
[17]
  Activity: Active
[18]
  Activity: Active
[19]
  Activity: Active
[20]
  Activity: Active
[21]
  Activity: inactive
[22]
  Activity: inactive

## CCC(CC)CNCC(O)Cn1c2ccc(Cl)cc2c2cc(Cl)ccc21 (stereo not drawn)
[1]
  MIC: 2.5 µM (≈ 0.983 µg/mL)
[2]
  MIC: 80 µM (≈ 31.5 µg/mL)
[8]
  MIC: 6.25 µM (≈ 2.46 µg/mL)
[9]
  MIC: 200 µM (≈ 78.7 µg/mL)
[10]
  MIC: 25 µM (≈ 9.83 µg/mL)
[11]
  MIC: 12.5 µM (≈ 4.92 µg/mL)
[12]
  MIC: > 200 µM
[13]
  MIC: > 200 µM
[14]
  MIC: 25 µM (≈ 9.83 µg/mL)
[15]
  MIC: > 200 µM
[16]
  MIC: 5 µM (≈ 1.97 µg/mL)

## CC(CO)(CO)NCC(O)Cn1c2ccc(Cl)cc2c2cc(Cl)ccc21 (stereo not drawn)
[1]
  MIC: 40 µM (≈ 15.9 µg/mL)
[2]
  MIC: 80 µM (≈ 31.8 µg/mL)

## NC[C@H]1O[C@H](O[C@H]2[C@H](O)[C@@H](O[C@H]3O[C@H](CO)[C@@H](O)[C@H](N)[C@H]3O)[C@H](N)C[C@@H]2N)[C@H](O)[C@@H](O)[C@@H]1O [KANAMYCIN]
[23]
  MIC: 10 µM (≈ 4.85 µg/mL)
[24]
  MIC: 2.5 µM (≈ 1.21 µg/mL)

## CC1(C)S[C@@H]2[C@H](NC(=O)[C@H](N)c3ccccc3)C(=O)N2[C@H]1C(=O)O [AMPICILLIN]
[23]
  MIC: 10 µM (≈ 3.49 µg/mL)
[24]
  MIC: 1 µM (≈ 0.349 µg/mL)

## OC(CNC1CCCCC1)Cn1c2ccc(Cl)cc2c2cc(Cl)ccc21 (stereo not drawn)
[1]
  MIC: 2.5 µM (≈ 0.978 µg/mL)
[2]
  MIC: 40 µM (≈ 15.7 µg/mL)
[8]
  MIC: 6.25 µM (≈ 2.45 µg/mL)
[9]
  MIC: 100 µM (≈ 39.1 µg/mL)
[10]
  MIC: 50 µM (≈ 19.6 µg/mL)
[11]
  MIC: 50 µM (≈ 19.6 µg/mL)
[12]
  MIC: > 200 µM
[13]
  MIC: > 200 µM
[14]
  MIC: 25 µM (≈ 9.78 µg/mL)
[15]
  MIC: > 200 µM
[16]
  MIC: 5 µM (≈ 1.96 µg/mL)
[3]
  MIC50: 2.5 µM (≈ 0.978 µg/mL)
  MIC90: 10 µM (≈ 3.91 µg/mL)
[4]
  MIC50: 5 µM (≈ 1.96 µg/mL)
  MIC90: 10 µM (≈ 3.91 µg/mL)
[5]
  MIC50: 21 µM (≈ 8.22 µg/mL)
  MIC90: 82 µM (≈ 32.1 µg/mL)
[6]
  MIC50: 41 µM (≈ 16 µg/mL)
  MIC90: 82 µM (≈ 32.1 µg/mL)
[7]
  MIC50: 164 µM (≈ 64.2 µg/mL)
  MIC90: ≥ 164 µM

## CC(C)CCNCCCn1c2ccc(Cl)cc2c2cc(Cl)ccc21
[1]
  MIC: 5 µM (≈ 1.82 µg/mL)
[2]
  MIC: 80 µM (≈ 29.1 µg/mL)

## OCC(CO)(CO)NCC(O)Cn1ccc2cc(Cl)ccc21 (stereo not drawn)
[1]
  MIC: 320 µM (≈ 105 µg/mL)
[2]
  MIC: > 320 µM

## OCC(CO)NCC(O)Cn1c2ccc(Cl)cc2c2cc(Cl)ccc21 (stereo not drawn)
[1]
  MIC: 20 µM (≈ 7.67 µg/mL)
[2]
  MIC: 40 µM (≈ 15.3 µg/mL)

## OCC(CO)(CO)NCC(O)Cn1c2ccc(Cl)cc2c2cc(Cl)ccc21 (racemic)
[1]
  MIC: 20 µM (≈ 8.27 µg/mL)
[2]
  MIC: 80 µM (≈ 33.1 µg/mL)
[8]
  MIC: 50 µM (≈ 20.7 µg/mL)
[9]
  MIC: 100 µM (≈ 41.3 µg/mL)
[10]
  MIC: 100 µM (≈ 41.3 µg/mL)
[11]
  MIC: 100 µM (≈ 41.3 µg/mL)
[12]
  MIC: 200 µM (≈ 82.7 µg/mL)
[13]
  MIC: 200 µM (≈ 82.7 µg/mL)
[14]
  MIC: 200 µM (≈ 82.7 µg/mL)
[15]
  MIC: 200 µM (≈ 82.7 µg/mL)
[16]
  MIC: 40 µM (≈ 16.5 µg/mL)

## CCC(CC)NCC(O)Cn1c2ccc(Cl)cc2c2cc(Cl)ccc21 (stereo not drawn)
[1]
  MIC: 5 µM (≈ 1.9 µg/mL)
[2]
  MIC: 80 µM (≈ 30.3 µg/mL)

## CO[C@@H]1[C@@H](OC(N)=O)[C@@H](O)[C@H](Oc2ccc3c(O)c(NC(=O)c4ccc(O)c(CC=C(C)C)c4)c(=O)oc3c2C)OC1(C)C [NOVOBIOCIN]
[1]
  MIC: 1.2 µM (≈ 0.735 µg/mL)
[23]
  MIC: 320 µM (≈ 196 µg/mL)

## OCC(CO)(CO)NC[C@@H](O)Cn1c2ccc(Cl)cc2c2cc(Cl)ccc21
[1]
  MIC: 20 µM (≈ 8.27 µg/mL)
[2]
  MIC: 80 µM (≈ 33.1 µg/mL)

## CCCCCNCC(O)Cn1c2ccc(Cl)cc2c2cc(Cl)ccc21 (stereo not drawn)
[1]
  MIC: 5 µM (≈ 1.9 µg/mL)
[2]
  MIC: 80 µM (≈ 30.3 µg/mL)

## CC(C)(C)NCC(O)Cn1c2ccc(Cl)cc2c2cc(Cl)ccc21 (stereo not drawn)
[1]
  MIC: 40 µM (≈ 14.6 µg/mL)
[2]
  MIC: 160 µM (≈ 58.4 µg/mL)

## OCC(CO)(CO)NCC(O)Cn1c2ccccc2c2ccccc21 (stereo not drawn)
[1]
  MIC: > 80 µM
[2]
  MIC: > 320 µM
